Experiments:
[1] = molecular target: T1, Progesterone receptor (Homo sapiens) (UniProt P06401); experiment: Binding affinity to progesterone receptor relative to R5020
T1 sequence (whole entry): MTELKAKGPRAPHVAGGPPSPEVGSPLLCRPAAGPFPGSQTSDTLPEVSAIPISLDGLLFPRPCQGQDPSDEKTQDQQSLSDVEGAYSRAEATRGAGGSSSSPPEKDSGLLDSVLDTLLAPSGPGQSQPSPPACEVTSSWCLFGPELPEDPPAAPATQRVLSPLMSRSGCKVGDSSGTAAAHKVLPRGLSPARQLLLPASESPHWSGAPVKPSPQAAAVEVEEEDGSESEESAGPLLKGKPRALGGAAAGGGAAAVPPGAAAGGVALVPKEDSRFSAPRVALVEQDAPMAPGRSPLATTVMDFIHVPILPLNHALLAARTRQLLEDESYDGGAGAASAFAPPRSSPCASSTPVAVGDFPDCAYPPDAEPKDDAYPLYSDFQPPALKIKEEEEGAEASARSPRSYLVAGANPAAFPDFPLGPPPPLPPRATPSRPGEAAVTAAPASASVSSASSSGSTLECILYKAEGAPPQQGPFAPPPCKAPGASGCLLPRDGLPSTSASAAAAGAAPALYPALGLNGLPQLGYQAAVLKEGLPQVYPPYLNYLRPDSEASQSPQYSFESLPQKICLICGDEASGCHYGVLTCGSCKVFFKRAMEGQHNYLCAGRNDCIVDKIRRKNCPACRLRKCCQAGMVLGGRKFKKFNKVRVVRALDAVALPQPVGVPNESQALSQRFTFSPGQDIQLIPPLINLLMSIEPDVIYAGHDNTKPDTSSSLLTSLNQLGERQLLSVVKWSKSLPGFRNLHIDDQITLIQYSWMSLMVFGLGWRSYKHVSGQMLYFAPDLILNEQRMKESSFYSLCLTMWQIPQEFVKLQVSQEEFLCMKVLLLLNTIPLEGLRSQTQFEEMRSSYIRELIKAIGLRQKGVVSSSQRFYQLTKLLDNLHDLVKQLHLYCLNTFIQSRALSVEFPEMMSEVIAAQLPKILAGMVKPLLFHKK

Progesterone receptor = molecular target: T2, Progesterone receptor (Homo sapiens, UniProt P06401); experiment: Binding affinity to progesterone receptor
T2 sequence (P06401 whole entry): T1 sequence (whole entry)

| SMILES | relative binding affinity (RBA) [1] | Kd (Progesterone receptor) |
| --- | --- | --- |
| CC1(C)OC(=S)Nc2ccc(-c3ccc(C#N)n3CCF)cc21 | 18.5 |  |
| CCC(=O)[C@@]1(C)CC[C@H]2[C@@H]3CCC4=CC(=O)CCC4=C3CC[C@@]21C [PROMEGESTONE] |  | 0.4 nM |
| CC1(C)OC(=S)Nc2ccc(-c3ccc(C#N)n3CCCF)cc21 | 0.99 |  |
